Data reported in publication PMC6362850 (European journal of medicinal chemistry, 2018).

Legend:
HBV Cp [1] = target: T1, HBV Cp (Hepatitis B virus genotype D subtype ayw, UniProt P03146, R150C); type: binding
HBV capsid = HBV capsid (Hepatitis B virus genotype D subtype ayw, UniProt P03146, R150C); assay: Transmission electron microscopy of HBV capsid assembly; type: biochemical; details: compared to DMSO control
HBV Cp [2] = target: T1, HBV Cp; details: HTS of commercial libraries; cited from earlier work
[3] = Aqueous solubility assay in DPBS; type: physicochemical; details: thermodynamic, 72 h, ambient temperature

Row | Compound | Cp binding in TSA, in words (HBV Cp [1]) | other results
1 | Cc1c(C(=O)Nc2ccccc2)sc(-n2cnnn2)c1C(N)=O [Compound 12k] | completely inactive | –
2 | Cc1c(C(=O)Nc2ccccc2)sc(N)c1C#N [Compound 14a] | loss of binding affinity | –
3 | Cc1cc(NC(=O)c2sc(N)c(C(N)=O)c2C)ccc1F [Compound 19h] | only the denaturation peak corresponding to fully assemble capsid was observed | Effect on HBV capsid assembly (TEM) (HBV capsid): promoted the aggregation of HBV capsid
4 | Cc1c(C(=O)NCc2ccccc2)sc(N)c1C(N)=O [Compound 19a] | strong Cp binding was preserved | –
5 | Cc1c(C(=O)Nc2ccccc2)sc(N)c1C(N)=O [Compound 11, 5-Amino-3-methyl-N2-phenylthiophene-2,4-dicarboxamide] | – | Binding to HBV Cp in TSA (HTS), in words (HBV Cp [2]): strong binder
6 | Cc1c(C(=O)Nc2ccc(F)c(C(F)F)c2)sc(N)c1C(N)=O [Compound 19o] | – | Aqueous Solubility [3]: poor aqueous solubility
7 | Cc1c(C(=O)Nc2ccc(F)c(F)c2)sc(N)c1C(=O)NC1CCCC1 [Compound 16m] | retained strong Cp binding | –
8 | 5-Amino-4-carbamothioyl-N-(3,4-difluorophenyl)-3-methylthiophene-2-carboxamide [Compound 13] | Strong binding | –
9 | Cc1c(C(=O)Nc2ccc(F)cc2)sc(N)c1C(N)=O [Compound 19e] | strong Cp binding | –
10 | Cc1c(C(=O)Nc2ccccc2)sc(NC(=O)N2CCOCC2)c1C(N)=O [Compound 12a, 3-Methyl-5-(morpholine-4-carboxamido)-N2-phenylthiophene-2,4-dicarboxamide] | completely inactive | –
11 | Cc1c(C(=O)Nc2cc(F)c(F)c(Cl)c2)sc(N)c1C#N [Compound 14d] | loss of binding affinity | –
12 | COc1ccc(NC(=O)c2sc(N)c(C(N)=O)c2C)cc1 [Compound 19b] | Cp binding was preserved | –
13 | Cc1c(C(=O)Nc2ccc(F)c(F)c2)sc(N)c1C(N)=O [Compound 19g] | – | Aqueous Solubility [3]: poor aqueous solubility
14 | Cc1c(C(=O)Nc2ccc(F)c(C#N)c2)sc(N)c1C(N)=O [Compound 19l] | – | Aqueous Solubility [3]: poor aqueous solubility
